Data as given in patent US20180127700A1, “Cell Culture Substrate for Rapid Release and Re-Plating” (priority 2015, published 2018).

Test system: NIH/3T3 mouse embryonic fibroblast cells
Experiment: Tissue module release/detachment from shape-memory pNIPAAm polymer microbeams upon thermally initiated swelling
Assay type: cell-based
Design: tissue module detachment after microbeam swelling (in words): dose or concentration left out as unconfirmed
Details: for effect of treatment on tissue module detachment (in words): all strains tested, pNIPAAm microbeams
Procedure: NIH/3T3 mouse embryonic fibroblast cells were cultured in 10% NCS growth medium containing 1% antibiotics (10,000 units/ml penicillin and 10,000 μg/ml streptomycin stock solution) at 37° C. in a humidified atmosphere of 5% CO2. To prepare tissue modules, trypsinized fibroblasts were seeded onto the fabricated shape-memory polymer arrays at a density of 500-750 cells/mm^2 and cultured at 37° C. until confluence (24-48 h). Studies of release from low cell density (100 cells/mm^2) were cultured for 24 h.
Rapid release of tissue modules was induced by thermally initiated swelling of the shape-memory polymer beams. 2 ml of cold PBS (4-10° C.) was introduced (1 ml at a time) into the seeded dish containing 2.5 ml of 37° C. medium resulting in cooling to about 27° C. Cell release was monitored via time-lapse image acquisition on a microscope for at least 70 s.
The mode of cell release from shape-memory polymer surfaces was examined by separately treating seeded samples with agents that modulate metabolism, contractility or adhesion.
To investigate the effect of surface strain on attached cells, the concentration of the network crosslinker (MBAm) in the prepolymer solution was varied from 1 to 4% before MIMIC processing. The one-dimensional width-wise strain in each microbeam was calculated from phase contrast micrographs as follows: […]
where ε is the Cauchy strain, Wcollapsed is the width of the polymer beam in the collapsed state and Wswollen is the width of the polymer beam in the swollen state. Cell detachment was calculated as the percent of cells released from the microbeams within 3 min after thermal stimulation.

SMILES	cell release after initiating shape change (in words) (2 mM DTSSP for 30 min prior to release, within 5 min of initiating shape change)	effect of treatment on tissue module detachment (in words)	tissue module detachment after microbeam swelling (in words) (Y-27632 for 30 min prior to release, large strains (ε>0.25))
O=C(CCSSCCC(=O)ON1C(=O)CC(S(=O)(=O)O)C1=O)ON1C(=O)CC(S(=O)(=O)O)C1=O (stereo not shown) [DTSSP, 3,3′-dithiobissulfosuccinimidylpropionate]	significant cell release was not observed	prevented tissue module detachment	
C[C@@H](N)[C@H]1CC[C@H](C(=O)Nc2ccncc2)CC1 [Y-27632]		prevented tissue module detachment	primarily remained attached
